In patent publication US20010044445A1, “AZOLE INHIBITORS OF CYTOKINE PRODUCTION” (priority 1999, published 2001):

Assays:
[1] = system: Human peripheral blood mononuclear cells; assay: Human Concanavalin-A Proliferation Assay (Con HU Assay); format: cell-based; conditions: Homo sapiens, PBMC, concanavalin-A stimulated human PBMC; for inhibition at 1 µM / inhibition at 10 µM / inhibition at 100 µM: 72 h, 3 days, read-out: % Inhibition of proliferation (at concentrations of 1,10, or 100 μm); for inhibition at 1 µM: concentration 1 μm (in parentheses in the cell); for inhibition at 10 µM: concentration 10 μm (in parentheses in the cell); for IC50: tritiated thymidine; for inhibition at 100 µM: concentration 100 μm (in parentheses in the cell)
Outline: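 Histopaque-isolated human PBMC (50,000/well) were pre-incubated 15 min with compounds, then stimulated with concanavalin-A at 2.5 μg/ml final for 3 days at 37 °C, 5% CO2. Proliferation measured by 6 h pulse with 0.5 μCi/well [3H]thymidine and beta counting.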

| SMILES | melting point [°C] | inhibition at 1 µM [1] [%] | inhibition at 10 µM [1] [%] | IC50 [1] [nM] | inhibition at 100 µM [1] [%] |
| --- | --- | --- | --- | --- | --- |
| CC(C)(C)OC(=O)N1CCCC1C(=O)Nc1ccc(-n2nc(C(F)(F)F)cc2C(F)(F)F)cc1 (centres unmarked) [Example 246, 1,1-Dimethylethyl 2-[[[4-[3,5-bis(trifluoromethyl)-1H-pyrazol-1-yl]phenyl]amino]carbonyl]-1-pyrrolidinecarboxylate] | 70 to 72 | 47 |  |  |  |
| O=C(Nc1ccc(-n2nc(C(F)(F)F)cc2C(F)(F)F)cc1)c1ccc([N+](=O)[O-])o1 [Example 247, N-[4-[3,5-bis(trifluoromethyl)-1H-pyrazol-1-yl]phenyl]-5-nitro-2-furancarboxamide] | 198 to 199 |  | 97 | 375 |  |
| Cn1cccc1C(=O)Nc1ccc(-n2nc(C(F)(F)F)cc2C(F)(F)F)cc1 [Example 248, N-[4-[3,5-bis(trifluoromethyl)-1H-pyrazol-1-yl]phenyl]-1-methyl-1H-pyrrole-2-carboxamide] | 148 to 149 |  | 100 | 143 |  |
| O=C(Nc1ccc(-n2nc(C(F)(F)F)cc2C(F)(F)F)cc1)c1ccc(Cl)nc1 [Example 249, N-[4-[3,5-bis(trifluoromethyl)-1H-pyrazol-1-yl]phenyl]-6-chloro-3-pyridinecarboxamide] | 192 to 194 |  | 100 | 182 |  |
| Cc1ccoc1C(=O)Nc1ccc(-n2nc(C(F)(F)F)cc2C(F)(F)F)cc1 [Example 252, N-[4-[3,5-bis(trifluoromethyl)-1H-pyrazol-1-yl]phenyl]-3-methyl-2-furancarboxamide] | 119 to 120 | 36 |  |  |  |
| O=C(Nc1ccc(-n2nc(C(F)(F)F)cc2C(F)(F)F)cc1)c1ccc(Cl)s1 [Example 253, N-[4-[3,5-bis(trifluoromethyl)-1H-pyrazol-1-yl]phenyl]-5-chloro-2-thiophenecarboxamide] | 182 to 184 |  | 94 | 447 |  |
| O=C1CCC(C(=O)Nc2ccc(-n3nc(C(F)(F)F)cc3C(F)(F)F)cc2)O1 (centres unmarked) [Example 254, N-[4-[3,5-bis(trifluoromethyl)-1H-pyrazol-1-yl]phenyl]tetrahydro-5-oxo-2-furancarboxamide] | 172 to 173 | 9 |  |  |  |
| O=C(Nc1ccc(-n2nc(C(F)(F)F)cc2C(F)(F)F)cc1)c1csc([N+](=O)[O-])c1 [Example 257, N-[4-[3,5-bis(trifluoromethyl)-1H-pyrazol-1-yl]phenyl]-5-nitro-3-thiophenecarboxamide] | 164 to 165 |  | 100 | 387 |  |
| CC(C)(C)OC(=O)N1CSCC1C(=O)Nc1ccc(-n2nc(C(F)(F)F)cc2C(F)(F)F)cc1 (centres unmarked) [Example 258, 1,1-Dimethylethyl 4-[[[4-[3,5-bis(trifluoromethyl)-1H-pyrazol-1-yl]phenyl]amino]carbonyl]-3-thiazolidinecarboxylate] | 82 to 84 | 16 |  |  |  |
| COc1cc(C(=O)Nc2ccc(-n3nc(C(F)(F)F)cc3C(F)(F)F)cc2)cs1 [Example 259, N-[4-[3,5-bis(trifluoromethyl)-1H-pyrazol-1-yl]phenyl]-5-methoxy-3-thiophenecarboxamide] | 213 to 214 | 5 |  |  |  |
| O=C(Nc1ccc(-n2nc(C(F)(F)F)cc2C(F)(F)F)nc1)c1ccccc1Cl [Example 260, N-[2-[3,5-bis(trifluoromethyl)-1H-pyrazol-1-yl]-5-pyridinyl]-2-chlorobenzamide] | 156 to 159 |  | 96 | 369 |  |
| N#Cc1cccc(C(=O)Nc2ccc(-n3nc(C(F)(F)F)cc3C(F)(F)F)nc2)c1 [Example 261, N-[2-[3,5-bis(trifluoromethyl)-1H-pyrazol-1-yl]-5-pyridinyl]-3-cyanobenzamide] | 206 to 208 | 37 |  |  |  |
| O=C(Nc1ccc(-n2nc(C(F)(F)F)cc2C(F)(F)F)nc1)c1cc(F)c(F)cc1Cl [Example 262, N-[2-[3,5-bis(trifluoromethyl)-1H-pyrazol-1-yl]-5-pyridinyl]-2-chloro-4,5-difluorobenzamide] | 113 to 116 |  | 100 | 419 |  |
| Cn1cc(C(=O)Nc2ccc(-n3nc(C(F)(F)F)cc3C(F)(F)F)cc2)cn1 [Example 265, N-[4-[3,5-bis(trifluoromethyl)-1H-pyrazol-1-yl]phenyl]-1-methyl-1H-pyrazole-4-carboxamide] | 211 to 212 |  | 90 | 3810 |  |
| COc1c(C(=O)Nc2ccc(-n3nc(C(F)(F)F)cc3C(F)(F)F)cc2)csc1Cl [Example 267, N-[4-[3,5-bis(trifluoromethyl)-1H-pyrazol-1-yl]phenyl]-5-chloro-4-methoxy-3-thiophenecarboxamide] | 119 to 120 | 38 |  |  |  |
| O=C(Nc1ccc(-n2nc(C(F)(F)F)cc2C(F)(F)F)cc1)c1cnc(Cl)c(Cl)c1 [Example 268, N-[4-[3,5-bis(trifluoromethyl)-1H-pyrazol-1-yl]phenyl]-5,6-dichloro-3-pyridinecarboxamide] | 175 to 177 |  | 100 | 347 |  |
| O=C(Nc1ccc(-n2nc(C(F)(F)F)cc2C(F)(F)F)cc1)c1cc(Cl)nc(Cl)c1 [Example 269, N-[4-[3,5-bis(trifluoromethyl)-1H-pyrazol-1-yl]phenyl]-2,6-dichloro-4-pyridinecarboxamide] | 215 to 216 |  | 99 | 392 |  |
| O=C(Nc1ccc(-n2nc(C(F)(F)F)cc2C(F)(F)F)c(C(F)(F)F)c1)c1ccc(Cl)cc1 [Example 271, N-[4-[3,5-bis(trifluoromethyl)-1H-pyrazol-1-yl]-3-(trifluoromethyl)phenyl]-4-chlorobenzamide] | 65 to 67 | 14 |  |  |  |
| O=C(Nc1ccc(-n2nc(C(F)(F)F)cc2C(F)(F)F)cc1F)c1ccc(F)cc1F [Example 272, N-[4-[3,5-bis(trifluoromethyl)-1H-pyrazol-1-yl]-2-fluorophenyl]-2,4-difluorobenzamide] | 66 to 67 | 10 |  |  |  |
| O=C(Nc1ccc(-n2nc(C(F)(F)F)cc2C(F)(F)F)cc1-n1nc(C(F)(F)F)cc1C(F)(F)F)c1ccc(F)cc1F [Example 273, N-[2,4-bis[3,5-bis(trifluoromethyl)-1H-pyrazol-1-yl]phenyl]-2,4-difluorobenzamide] | 114 to 115 | 12 |  |  |  |
| Cc1noc(C)c1C(=O)Nc1ccc(-n2nc(C(F)(F)F)cc2C(F)(F)F)c(C(F)(F)F)c1 [Example 275, N-[4-[3,5-bis(trifluoromethyl)-1H-pyrazol-1-yl]-3-(trifluoromethyl)phenyl]-3,5-dimethyl-4-isoxazolecarboxamide] | 61 to 63 | 8 |  |  |  |
| Cc1nnsc1C(=O)Nc1ccc(-n2nc(C(F)(F)F)cc2C(F)(F)F)c(C(F)(F)F)c1 [Example 276, N-[4-[3,5-bis(trifluoromethyl)-1H-pyrazol-1-yl]-3-(trifluoromethyl)phenyl]-4-methyl-1,2,3-thiadiazole-5-carboxamide] | 134 to 136 | 16 |  |  |  |
| Cc1noc(C)c1C(=O)Nc1ccc(-n2nc(C(F)(F)F)cc2C(F)(F)F)c(Cl)c1 [Example 277, N-[4-[3,5-bis(trifluoromethyl)-1H-pyrazol-1-yl]-3-chlorophenyl]-3,5-dimethyl-4-isoxazolecarboxamide] | 64 to 65 |  |  | 1060 | 99 |
| Cc1noc(C)c1C(=O)Nc1ccc(-n2nc(C(F)(F)F)cc2C(F)(F)F)cc1C(F)(F)F [Example 278, N-[4-[3,5-bis(trifluoromethyl)-1H-pyrazol-1-yl]-2-(trifluoromethyl)phenyl]-3,5-dimethyl-4-isoxazolecarboxamide] | 145 to 146 | 4 |  |  |  |
| Cc1cc(-n2nc(C(F)(F)F)cc2C(F)(F)F)ccc1NC(=O)c1snnc1C [Example 279, N-[4-[3,5-bis(trifluoromethyl)-1H-pyrazol-1-yl]-2-methylphenyl]-4-methyl-1,2,3-thiadiazole-5-carboxamide] | 196 to 197 | 6 |  |  |  |
| COc1cc(-n2nc(C(F)(F)F)cc2C(F)(F)F)ccc1NC(=O)c1snnc1C [Example 280, N-[4-[3,5-bis(trifluoromethyl)-1H-pyrazol-1-yl]-2-methoxyphenyl]-4-methyl-1,2,3-thiadiazole-5-carboxamide] | 119 to 121 |  | 16 |  |  |
| Cc1nnsc1C(=O)Nc1ccc(-n2nc(C(F)(F)F)cc2C)cc1 [Example 282, 4-methyl-N-[4-[5-methyl-3-(trifluoromethyl)-1H-pyrazol-1-yl]phenyl]-1,2,3-thiadiazole-5-carboxamide] | 51 to 53 |  |  | 248 | 100 |
| Cc1noc(C)c1C(=O)Nc1ccc(-n2nc(C(F)(F)F)cc2C)cc1 [Example 283, 3,5-Dimethyl-N-[4-[5-methyl-3-(trifluoromethyl)-1H-pyrazol-1-yl]phenyl]-4-isoxazolecarboxamide] | 180 to 181 |  |  | 1040 | 99 |
| Cc1noc(C)c1C(=O)Nc1ccc(-n2ccc(C(F)(F)F)n2)cc1 [Example 287, 3,5-dimethyl-N-[4-[3-(trifluoromethyl)-1H-pyrazol-1-yl)phenyl]-4-isoxazolecarboxamide] | 177 to 178 | 24 |  |  |  |
